Patent US7879823B2, “Topical anti-cancer compositions and methods of use thereof” (Johnson & Johnson Consumer Companies, priority 1999, dated 2011)

System: Skin Tumors in SKH-1 Mice Previously Treated with Ultraviolet B Light
Experiment: Development of skin tumors in high-risk SKH-1 mice previously treated with UVB, topical application
Format: in vivo
Settings: for Effect on tumor growth / tumor progression (tumor volume per mouse), in words: daily topical treatment, 21 weeks of the treatment phase, relative to control; for Percent of mice with tumors / Tumor volume per mouse / Tumor volume per tumor / Tumors per mouse: topical once a day 5 days per week
Source text: Co. (Byran, Ohio). […] Controls include vehicle alone and an unrelated protein (BSA). […] Louis, Mo.). Acetone was from Fisher Scientific (Springfield, N.J.).

Molecule: Cn1c(=O)c2c(ncn2C)n(C)c1=O [Caffeine, caffeine]
- Effect on tumor growth / tumor progression (tumor volume per mouse), in words: marked delay in tumor progression
- Number of tumors per mouse, in words (following topical treatment): reduced
- Percent of tumor-bearing mice, in words (following topical treatment): reduced
- Tumor volume per tumor, in words (following topical treatment): reduced
- Percent of mice with tumors (week 0): 0
- Tumor volume per mouse (week 0): 0 mm^3
- Tumor volume per tumor (week 0): 0 mm^3
- Tumors per mouse (week 0): 0
- Percent of mice with tumors (week 6): 16.7%
- Tumor volume per mouse (week 6): 0.2 ± 0.1 mm^3
- Tumor volume per tumor (week 6): 1.3 ± 0.7 mm^3
- Tumors per mouse (week 6): 0.2 ± 0.1
- Tumor volume per mouse (week 9): 0.7 ± 0.5 mm^3
- Tumor volume per tumor (week 9): 3.4 ± 2.2 mm^3
- Tumors per mouse (week 9): 0.2 ± 0.1
- Percent of mice with tumors (week 12): 50.0%
- Tumor volume per mouse (week 12): 4.0 ± 1.9 mm^3
- Tumor volume per tumor (week 12): 3.2 ± 0.8 mm^3
- Tumors per mouse (week 12): 1.3 ± 0.4
- Percent of mice with tumors (week 15): 56.7%
- Tumor volume per mouse (week 15): 6.7 ± 2.2 mm^3
- Tumor volume per tumor (week 15): 3.2 ± 0.6 mm^3
- Tumors per mouse (week 15): 2.1 ± 0.5
- Percent of mice with tumors (week 18): 80.0%
- Tumor volume per mouse (week 18): 22.1 ± 6.2 mm^3
- Tumor volume per tumor (week 18): 6.2 ± 1.3 mm^3
- Tumors per mouse (week 18): 3.6 ± 0.6
- Percent of mice with tumors (week 21): 76.7%
- Tumor volume per mouse (week 21): 21.5 ± 6.0 mm^3
- Tumor volume per tumor (week 21): 5.3 ± 1.0 mm^3
- Tumors per mouse (week 21): 4.0 ± 0.7

Molecule: BSA in liposomes: bovine serum albumin (0.8 mg) in 100 ul liposomes; unrelated protein control
- Percent of mice with tumors (week 0): 0
- Tumor volume per mouse (week 0): 0 mm^3
- Tumor volume per tumor (week 0): 0 mm^3
- Tumors per mouse (week 0): 0
- Percent of mice with tumors (week 6): 20.0%
- Tumor volume per mouse (week 6): 0.6 ± 0.5 mm^3
- Tumor volume per tumor (week 6): 2.5 ± 1.9 mm^3
- Tumors per mouse (week 6): 2.0 ± 0.1
- Percent of mice with tumors (week 9): 50.0%
- Tumor volume per mouse (week 9): 2.9 ± 1.4 mm^3
- Tumor volume per tumor (week 9): 2.7 ± 1.2 mm^3
- Tumors per mouse (week 9): 1.1 ± 0.3
- Percent of mice with tumors (week 12): 80.0%
- Tumor volume per mouse (week 12): 9.1 ± 3.1 mm^3
- Tumor volume per tumor (week 12): 3.5 ± 1.0 mm^3
- Tumors per mouse (week 12): 2.6 ± 0.6
- Percent of mice with tumors (week 15): 90.0%
- Tumor volume per mouse (week 15): 21.4 ± 6.6 mm^3
- Tumor volume per tumor (week 15): 4.0 ± 0.7 mm^3
- Tumors per mouse (week 15): 5.3 ± 0.8
- Percent of mice with tumors (week 18): 90.0%
- Tumor volume per mouse (week 18): 41.1 ± 9.7 mm^3
- Tumor volume per tumor (week 18): 6.3 ± 1.0 mm^3
- Tumors per mouse (week 18): 6.5 ± 0.9
- Percent of mice with tumors (week 21): 90.0%
- Tumor volume per mouse (week 21): 44.7 ± 11.6 mm^3
- Tumor volume per tumor (week 21): 6.3 ± 1.0 mm^3
- Tumors per mouse (week 21): 7.1 ± 0.8

B1: STI: trypsin inhibitor (STI; 0.8 mg; T9003, Sigma) in 100 ul liposomes (protein, UniProt P01070 25-205, looked up)
Trypsin inhibitor A: DFVLDNEGNPLENGGTYYILSDITAFGGIRAAPTGNERCPLTVVQSRNELDKGIGTIISSPYRIRFIAEGHPLSLKFDSFAVIMLCVGIPTEWSVVEDLPEGPAVKIGENKDAMDGWFRLERVSDDEFNNYKLVFCPQQAEDDKCGDIGISIDHDDGTRRLVVSKNKPLVVQFQKLDKESL
modifications: in liposomes
notes: 0.8 mg; T9003, Sigma) in 100 ul liposomes
- Effect on tumor growth / tumor progression (tumor volume per mouse), in words: unexpected and significant effect on tumor progression
- Percent of mice with tumors (week 0): 0
- Tumor volume per mouse (week 0): 0 mm^3
- Tumor volume per tumor (week 0): 0 mm^3
- Tumors per mouse (week 0): 0
- Percent of mice with tumors (week 6): 16.7%
- Tumor volume per mouse (week 6): 0.8 ± 0.6 mm^3
- Tumor volume per tumor (week 6): 3.5 ± 1.9 mm^3
- Tumors per mouse (week 6): 0.2 ± 0.1
- Percent of mice with tumors (week 9): 41.4%
- Tumor volume per mouse (week 9): 2.6 ± 1.4 mm^3
- Tumor volume per tumor (week 9): 3.0 ± 1.4 mm^3
- Tumors per mouse (week 9): 0.9 ± 0.2
- Percent of mice with tumors (week 12): 46.7%
- Tumor volume per mouse (week 12): 9.4 ± 3.9 mm^3
- Tumor volume per tumor (week 12): 4.8 ± 1.3 mm^3
- Tumors per mouse (week 12): 1.9 ± 0.5
- Percent of mice with tumors (week 15): 55.2%
- Tumor volume per mouse (week 15): 17.8 ± 7.9 mm^3
- Tumor volume per tumor (week 15): 5.8 ± 2.1 mm^3
- Tumors per mouse (week 15): 3.1 ± 0.7
- Percent of mice with tumors (week 18): 63.3%
- Tumor volume per mouse (week 18): 30.7 ± 11.9 mm^3
- Tumor volume per tumor (week 18): 7.3 ± 2.2 mm^3
- Tumors per mouse (week 18): 4.2 ± 0.9
- Percent of mice with tumors (week 21): 80.0%
- Tumor volume per mouse (week 21): 48.7 ± 23.3 mm^3
- Tumor volume per tumor (week 21): 8.6 ± 3.2 mm^3
- Tumors per mouse (week 21): 5.6 ± 0.9

B2: BBI: Bowman-Birk protease inhibitor (BBI; 0.8 mg; T97770, Sigma) in 100 ul liposomes (protein, UniProt P01055 40-110, looked up)
Bowman-Birk type proteinase …: DDESSKPCCDQCACTKSNPPQCRCSDMRLNSCHSACKSCICALSYPAQCFCVDITDFCYEPCKPSEDDKEN
modifications: in liposomes
notes: 0.8 mg; T97770, Sigma) in 100 ul liposomes
- Percent of mice with tumors (week 0): 0
- Tumor volume per mouse (week 0): 0 mm^3
- Tumor volume per tumor (week 0): 0 mm^3
- Tumors per mouse (week 0): 0
- Percent of mice with tumors (week 6): 30.0%
- Tumor volume per mouse (week 6): 0.3 ± 0.1 mm^3
- Tumor volume per tumor (week 6): 0.9 ± 0.3 mm^3
- Tumors per mouse (week 6): 0.4 ± 0.1
- Percent of mice with tumors (week 9): 27.6%
- Tumor volume per mouse (week 9): 1.0 ± 0.7 mm^3
- Tumor volume per tumor (week 9): 1.7 ± 0.8 mm^3
- Tumors per mouse (week 9): 0.6 ± 0.2
- Percent of mice with tumors (week 12): 50.0%
- Tumor volume per mouse (week 12): 3.7 ± 1.8 mm^3
- Tumor volume per tumor (week 12): 2.4 ± 0.8 mm^3
- Tumors per mouse (week 12): 1.5 ± 0.4
- Percent of mice with tumors (week 15): 66.7%
- Tumor volume per mouse (week 15): 9.0 ± 2.4 mm^3
- Tumor volume per tumor (week 15): 4.1 ± 0.8 mm^3
- Tumors per mouse (week 15): 2.2 ± 0.4
- Percent of mice with tumors (week 18): 76.7%
- Tumor volume per mouse (week 18): 19.0 ± 4.6 mm^3
- Tumor volume per tumor (week 18): 5.9 ± 1.3 mm^3
- Tumors per mouse (week 18): 3.2 ± 0.6
- Percent of mice with tumors (week 21): 90.0%
- Tumor volume per mouse (week 21): 33.2 ± 9.6 mm^3
- Tumor volume per tumor (week 21): 7.4 ± 2.0 mm^3
- Tumors per mouse (week 21): 4.5 ± 0.6
